According to patent US20250188085A1, “COMPOSITIONS AND METHODS FOR INHIBITION OF RAS” (THERAS, INC., priority 2022, published 2025):
Like-named read-outs stand apart in the source and are kept apart here.

Key:
[1] = system: pERK in NCI-H358 cells; experiment: Cell-based pERK HTRF assay; conditions: 30 min incubation, read-out: pERK in NCI-H358 cell inhibition IC50
Protocol: pERK assays (Perkin Elmer) were used to determine the effectiveness of compounds of the present disclosure in disrupting KRAS G12C protein/effector signaling in cells.
On Day 1, cells (NCI-H358) were seeded into 96-well plates at 4×10^4 cells/well in complete growth media (RPMI, 10% FBS).
On Day 2, cells were treated with compounds at 0.25% DMSO. The source plate was created with compounds diluted in media at 5-fold the final assay concentration. The compounds were run in a 9-point concentration curve starting at 75 μM, with a 3-fold dilution between concentrations. 20 μL was transferred onto the cell plates (final volume in wells was 100 μL). Plates were harvested after 30 min incubation by aspirating media and adding kit-supplied 1× supplemented lysis buffer to all wells (75 μl per well). Plates were then placed on a plate shaker and incubated at 850 rpm for an additional 30 min.
Antibody mixture solution was prepared by diluting aliquoted d2 and Eu Cryptate antibodies 1:20 in kit supplied detection buffer, then mixed the diluted antibodies solutions (1:1 v:v). 4 μL of this solution was then added to a 384-well detection plate (Perkin Elmer; 6008230).
Samples were homogenized by pipetting up and down and then transferred (16 μL of cell lysates) from the 96-well cell culture plate to two wells of the HTRF 384-well detection plate containing the antibody solution. Plates were centrifuged (524 g for Imin) and allowed to incubate between 4 and 24 h at room temperature. Maximum signal is reached after 4 h incubation time and remains stable over a period of 24 hours. Therefore, readings can be made between 4 and 24 h of incubation. Plates were centrifuged again (524 g for Imin) and analyzed on the En Vision plate reader using the following settings: Excitation 320 nm, Bandwidth 75 nm; Emission 615 nm, Bandwidth 85 nm; Gain 100%; Flashes 100; Lag 60 μs.

[2] = target: T1, Avi-KRAS G12C (1-169) GppNHp/RAF1 RBD-3×FLAG (52-151) (Homo sapiens, UniProt P01116, G12C); experiment: Raf1 RBD-KRAS G12C-GppNHp disruption (protein:protein interaction HTRF assay); assay type: biochemical
T1 construct: Avi-KRAS G12C (1-169) GppNHp/RAF1 RBD-3×FLAG (52-151)
Protocol: A protein: protein (PPI) interaction Homogeneous Time Resolved Fluorescence (HTRF) assay was used to determine the effectiveness of compounds of the present disclosure in disrupting KRAS G12C protein and effector (RAF1 or PIK3CA) binding.
The HTRF assay used the following reagents and proteins: 50 nM Avi-KRAS G12C Q25A (1-169) GppNHp/3×FLAG-PI3K CA (157-299); 50 nM Avi-KRAS G12C (1-169) GppNHp/RAF1 RBD-3×FLAG (52-151); 35 nM Avi-PI3K RBD-3×FLAG; Assay Buffer: 50 mM Tris pH 7.5, 100 mM NaCl, 5 mM MgCl2, 0.1% BSA, 0.01% Tween 20, 10% DMSO; Bead Buffer: 50 mM Tris pH 7.5, 0.01% Tween 20; Assay volume: 20 μL (384 well plate-low volume format); and Compound titration: 30-0.02 μM, 3× dilution series.
The HTRF assay employed the following protocol:
Compounds were dispensed in assay plate (384-well, Grenier Bione #784075) using Echo (model 555) with dose response settings: 200 nL final volume, titration from 100 μM as a 10-point dilution series. KRAS proteins were prepared in assay buffer, and dispensed on plates, 5 μL per well, then incubated for 1 h at room temperature, with 700 rpm shaking. RAF1 RBD and PI3K RBD CA were prepared in assay buffer, dispensed onto plates, 5 μL per well, and then incubated for 1 h at room temperature, with 700 rpm shaking. Reagent mix was then prepared and dispensed on plates, 10 μL per well, and then incubated for 1 h at room temperature, with 700 rpm shaking.
Plates were analyzed on an Envision plate reader using the following setting: Excitation 320 nm, Bandwidth 75 nm; Emission 615 nm, Bandwidth 85 nm; Gain 100%; Flashes 100; Lag 60 μs. Data was reported as percentage of activity, with DMSO as 100%. Data was plotted and analyzed using Prism 8.

[3] = target: T2, GppNHp-loaded KRAS4b (amino acids 1-169) G12C/C118S protein (Homo sapiens, UniProt P01116, C118S/G12C); experiment: Covalent cysteine 12 modification by MALDI-TOF MS, GppNHp-loaded KRAS G12C; assay type: binding; conditions: 15 minutes reaction time point
T2 construct: KRAS4b (amino acids 1-169) G12C/C118S protein; made in house
Protocol: (§1) Reaction: 1 μM of GppNHp-, GTP-, or GDP-loaded KRAS4b (amino acids 1-169) G12C/C118S protein (produced in-house by Protein Expression Laboratory, FNLCR/Leidos Biomed) in 20 mM 4-(2-hydroxyethyl)-1-piperazineethanesulfonic acid (HEPES) buffer containing 150 mM NaCl, 1 mM MgCl2, pH 7.3 was prepared freshly before assay. Ten-μL aliquots of protein were dispensed onto low volume 384-well plate, then 375 nL DMSO, and 25 nL of tested compounds from 5 mM DMSO stocks were added to appropriate wells using ECHO 555 acoustic liquid handler (Labcyte Inc.). For each reaction/assay, three blanks were prepared by mixing 10 μL of protein solution with 400 nL DMSO. The contents of the wells were carefully mixed by aspiration, and then each plate was sealed with an adhesive cover, centrifuged at 2000 g for 1 minute, and kept in the dark at room temperature until 5 min, 15 min, 30 min, or 2 h collections.
(§2) Target pretreatment: Before each assay MALDI target (Bruker MPT 384 ground steel BC) was pre-treated by pipetting on each spot 0.75 μL of saturated sinapinic acid in acetonitrile (ACN).
(§3) Sample preparation: At collection time point, 2 μL of reaction mixtures were pipetted out into 20 μL MALDI matrix solution (saturated solution of sinapinic acid in 1:1 ACN:water solution containing 0.75% trifluoroacetic acid (TFA)) deposited on 384 well polypropylene plate. Resulting solution was mixed by aspiration, centrifuged at 2000 g for 1 minute, then 1 μL aliquots were dispensed on pre-treated MALDI target using Beckman Coulter Biomek FXP 96/384-Span-8 Laboratory Automation Workstation. Finally, the MALDI target was dried under mild vacuum to produce spots with fine crystalline structure.
(§4) Measurements: MALDI-TOF measurements were performed on a Bruker Daltonics rapiflex Tissuetyper TOF-TOF mass spectrometer using linear mode and mass range from 18.6 to 21.6 kDa. Detector gain was set to 3.3× (483 V), sample rate to 5 GS/s, real time smoothing to medium (175 MHz), laser smart beam pattern was set to: “MS Thin Layer M5”, and the laser frequency was 10000 Hz. Spectra were automatically collected using custom Auto Xecute method. Laser power was auto adjusted using fuzzy control. The peak selection range was set to be between 19000 and 21500 Da. Peak evaluation uses half width parameter set to be smaller than 40 Da for processed spectrograms (centroid peak detection; smoothed by SavitzkyGolay algorithm using 7 m/z width and 2 cycles; baseline was subtracted using median algorithm with flatness 1 and median level 0.01). Fuzzy control used Proteins/Oligonucleotides protocol with minimum half width 1/10 times above threshold. Up to 40000 satisfactory shots were collected in 10000 shot steps. Dynamic termination was implemented to finish data collection when peak signal/noise ratio was reaching value of 50.
(§5) Spectra processing: Spectra were smoothed by SavitzkyGolay algorithm using 7 m/z width and three cycles. Centroid peak detection algorithm was used with signal to noise threshold set to 6, relative intensity threshold 4%, peak width 10 m/z and median baseline subtraction using flatness of 1 and median level of 0.01. Peak intensity and area under the peak were evaluated and recorded for all peaks between 19,300 Da and 21,550 Da.
(§6) Calculation of percent modification: Percent modification was calculated as a ratio of peak height for protein modified by compound to sum of peak height of remaining protein plus peak height for protein modified by compound. If multiple modifications were observed each was calculated as a ratio of peak height for given modification versus sum of peak heights for all observed protein species. Data reported in Table 5 are from 15 minutes reaction time point.

[4] = target: T3, GDP-loaded KRAS4b (amino acids 1-169) G12C/C118S protein (Homo sapiens, UniProt P01116, C118S/G12C); experiment: Covalent cysteine 12 modification by MALDI-TOF MS, GDP-loaded KRAS G12C; assay type: binding; conditions: 15 minutes reaction time point
T3 construct: KRAS4b (amino acids 1-169) G12C/C118S protein; made in house
Protocol: as §1, §2, §3, §4, §5, §6

Structure (SMILES) | IC50 ([1]; Homo sapiens, NCI-H358, 0.5 h) [nM] | IC50 [2] [nM] | GppNHp-KRAS G12C percent of modification [3] | GDP-KRAS G12C percent of modification [4] | IC50 [1] [nM]
C=CC(=O)N1CC(Oc2nc(OC[C@@H]3C[C@@H](F)CN3C)nc3c(F)c(-c4ccc(F)c5sc(N)nc45)c(C(F)(F)F)cc23)C1 [Compound 23] | 100 to 1000 | 500 to 5000 | C (10%≤modification <50%) | B (50≤percent of modification <70%) | –
C=CC(=O)N1C[C@H](Oc2nc(OC[C@@]34CCCN3C[C@H](F)C4)nc3c(F)c(-c4ccc(F)c5sc(N)nc45)c(C(F)(F)F)cc23)C[C@@H]1C (atropisomer, axis not shown) [Compound 32] | – | ≤ 500 | C (10%≤modification <50%) | A (percent of modification ≥70%) | ≤ 100
C=CC(=O)N1CC[C@@H](Oc2nc(OC[C@@H]3C[C@@H](OC)CN3C)nc3c(F)c(-c4ccc(F)c5sc(N)nc45)c(C(F)(F)F)cc23)C1 (single isomer, unassigned) [Compound 14] | – | ≤ 500 | B (50≤percent of modification <70%) | A (percent of modification ≥70%) | ≤ 100
C=CC(=O)N1CC[C@@H](Oc2nc(OC[C@@]34CCCN3C[C@H](F)C4)nc3c(F)c(-c4ccc(F)c5sc(N)nc45)c(Cl)cc23)C1 (atropisomer, axis not shown) [Compound 3] | ≤ 100 | ≤ 500 | A (percent of modification ≥70%) | A (percent of modification ≥70%) | –
C=CC(=O)N1CC[C@@H](Oc2nc(OC[C@@]34CCCN3C[C@H](F)C4)nc3c(F)c(-c4ccc(F)c5oc(N)nc45)c(C(F)(F)F)cc23)C1 [Compound 36, 1-((3R)-3-((7-(2-amino-7-fluorobenzo[d]oxazol-4-yl)-8-fluoro-2-(((2R,7aS)-2-fluorotetrahydro-1H-pyrrolizin-7a (5H)-yl)methoxy)-6-(trifluoromethyl)quinazolin-4-yl)oxy)pyrrolidin-1-yl) prop-2-en-1-one] | ≤ 100 | ≤ 500 | C (10%≤modification <50%) | C (10%≤modification <50%) | –
C=CC(=O)N1CC[C@@H](Oc2nc(OC[C@@H]3CCCN3C)nc3c(F)c(-c4ccc(F)c5sc(N)nc45)c(C(F)(F)F)cc23)C1 [Compound 13] | 100 to 1000 | ≤ 500 | B (50≤percent of modification <70%) | A (percent of modification ≥70%) | –
C=CC(=O)N1CC[C@@H](Oc2nc(OC[C@@]34CCCN3C[C@H](F)C4)nc3c(F)c(-c4ccc(F)c5sc(N)nc45)c(Cl)cc23)C1 (atropisomer, axis not shown) [Compound 10] | – | 500 to 5000 | D (percent of modification <10%) | D (percent of modification <10%) | 100 to 1000
C=CC(=O)N1CC[C@@H](Oc2nc(OC[C@@]34CCCN3C[C@H](F)C4)nc3c(F)c(-c4ccc(F)c5sc(N)nc45)c(C(F)(F)F)cc23)C1 (single isomer, unassigned) [Compound 11] | ≤ 100 | ≤ 500 | A (percent of modification ≥70%) | A (percent of modification ≥70%) | –
C=CC(=O)N1CC[C@@H](Oc2nc(OC[C@@H]3C[C@@H](F)CN3C)nc3c(F)c(-c4ccc(F)c5sc(N)nc45)c(C(F)(F)F)cc23)C1 (atropisomer, axis not shown) [Compound 18] | – | ≤ 500 | C (10%≤modification <50%) | A (percent of modification ≥70%) | ≤ 100
C=CC(=O)N1CC[C@@H](Oc2nc(OC[C@@H]3CC4(CC4)CN3C)nc3c(F)c(-c4ccc(F)c5sc(N)nc45)c(C(F)(F)F)cc23)C1 (atropisomer, axis not shown) [Compound 24] | – | ≤ 500 | B (50≤percent of modification <70%) | A (percent of modification ≥70%) | ≤ 100
C=CC(=O)N1CC(Oc2nc(OC[C@@]34CCCN3C[C@H](F)C4)nc3c(F)c(-c4ccc(F)c5sc(N)nc45)c(C(F)(F)F)cc23)C1 [Compound 7, 1-(3-((7-(2-amino-7-fluorobenzo[d]thiazol-4-yl)-8-fluoro-2-(((2R,7aS)-2-fluorotetrahydro-1H-pyrrolizin-7a (5H)-yl)methoxy)-6-(trifluoromethyl)quinazolin-4-yl)oxy)azetidin-1-yl) prop-2-en-1-one] | > 1000 | > 20000 | D (percent of modification <10%) | D (percent of modification <10%) | –
